The record followed here is a compilation of properties of binary mixtures (doi:10.1021/je700428f).

The nature of the series: xn = mol fraction of the nth substance listed. The settings on record: 100 kPa.

For the compound `C=CC[n+]1ccn(C)c1.O=S(=O)([N-]S(=O)(=O)C(F)(F)F)C(F)(F)F` + CCCO, the speed of sound (in general, the propagation velocity of pressure waves in the medium) is on record as 1189.5 m/s (298.15 K, x1 = 0.2987); 1207.5 m/s (308.15 K, x1 = 0.8024); 1173.5 m/s (313.15 K, x1 = 0.5004); 1127.5 m/s (323.15 K, x1 = 0.2987).
In the case of `CC[S+](CC)CC.O=S(=O)([N-]S(=O)(=O)C(F)(F)F)C(F)(F)F` + CCCO, the speed of sound stood at 1205.5 m/s (293.15 K, x1 = 0.0493); 1159.5 m/s (308.15 K, x1 = 0.0493); 1181.5 m/s (323.15 K, x1 = 0.903).
As for `CCCO` + C=CC[n+]1ccn(C)c1.O=S(=O)([N-]S(=O)(=O)C(F)(F)F)C(F)(F)F, the speed of sound by setting is: (298.15 K, x2 = 0) 1206.5 m/s; (338.15 K, x2 = 0) 1071.5 m/s; (343.15 K, x2 = 0) 1054.5 m/s.
Compound `CCCO` + CC[S+](CC)CC.O=S(=O)([N-]S(=O)(=O)C(F)(F)F)C(F)(F)F showed a speed of sound (338.15 K, x2 = 0) of 1071.5 m/s and a speed of sound (343.15 K, x2 = 0) of 1054.5 m/s.
